# B1: IFN-γ: human interferon-gamma used to induce PD-L1 (protein, UniProt P01579 24-161, looked up)
# Interferon gamma: QDPYVKEAENLKKYFNAGHSDVADNGTLFLGILKNWKEESDRKIMQSQIVSFYFKLFKNFKDDQSIQKSVETIKEDMNVKFFNSNKKKRDDFEKLTNYSVTDLNVQRKAIHELIQVMAELSPAAKTGKRKRSQMLFRG
# Assays:
# [1] = alamarBlue cell viability; type: cell-based; details: human, SK-MEL-28 cells, SK-MEL-28, highest concentration tested (1000 nM), IFN-γ 50 ng/ml
# Protocol: (§1) FIG. 2A-E. Dose response curves of 5 additional HSP90 inhibitors. A) STA-9090, B) CUDC-305, C) MPC-3100, D) XL-888 and E) TAS-116. SK-MEL-28 cells treated with IFN-γ (50 ng/ml) and with the indicated HSP90 inhibitor at different concentrations. Cells were assayed for cell viability (square, % viability on left axis) and PD-L1 expression (circle, Z-score right axis) at 48 h after treatment of IFN-γ and/or HSP inhibitors. Quadruplicate wells were used for determination of cell viability and PD-L1 expression. Average values were plotted.
# 44 h later, cell viability was determined using alamarBlue™ cell viability reagent (Thermofisher), according to the manufacturers protocol. Briefly, 3 μL of alamarBlue™ reagent was added to each well and plates were incubated for a further 4 h. The plates were read on a Victor ^3V plate reader (Perkin Elmer). Viability for each drug was expressed as a percentage by comparing drug-treated cells and untreated control cells (Set to 100%).
# (§2) These 4 HSP90 inhibitors were validated using the same experimental protocol employed above (using the SK-MEL-28 cells +/−IFN-γ in 384 well plates), with the only exception to the original assay design was that each drug was now tested in a 10-point dose response assay where the concentration of drug tested was 9.8-5000 nM (2 fold serial dilution). Cells were seeded and treated in quadruplicate. Viability was assessed after 48 h of treatment of four HSP 90 inhibitors and prior to harvesting the cells for testing PD-L1 signal, as described above.
# [2] = test system: IFN-γ-induced PD-L1 expression in SK-MEL-28 cells; test: 10-point dose response validation of IFN-γ-induced PD-L1 signal; type: cell-based, human; details: 48 h; for concentration required to inhibit IFN-γ-induced PD-L1 expression compared with concentration required to affect cell proliferation: SK-MEL-28, IFN-γ 50 ng/ml, FIG. 2A-E; for IFN-γ-induced PD-L1 signal: SK-MEL-28, 10-point dose response 9.8-5000 nM, FIG. 1A-D
# Protocol: FIG. 1A-D. Validation dose response curves of HSP90 inhibitors tested in the original screen. A) CNF2024; B) PF04928473; C) tanespimycin; D) HSP-990. SK-MEL-28 cells treated with IFN-γ and with the indicated HSP90 inhibitor at different concentrations. Cells were assayed for cell viability (square, % viability on left axis) and PD-L1 expression (circle, Z-score right axis) at 48 h after treatment of IFN-γ and/or HSP90 inhibitors. Quadruplicate wells were used for determination of cell viability and PD-L1 expression. Average values were plotted. […] Lysates were probed with anti PD-L1 antibody.
# as §1
# After assessment for viability, plates were then prepared for immunostaining. Briefly, 16% paraformaldehyde (Electron Microscopy Sciences) was added to each well to a final concentration of 4%, for 10 minutes at room temperature. Following this time, the fix was aspirated and cells were washed 3 times with PBS. Cells were blocked using blocking solution (1% bovine serum albumin in PBS) for 30 minutes. After this time, the blocking reagent was aspirated and immunostaining reagent added. The immunostaining reagent consisted of a biotin conjugated-PD-L1 antibody (eBioscience) diluted in blocking buffer. Plates were sealed and kept at 4 C overnight. The following day, plates were washed 3 times with PBS followed by addition of a streptavidin-luciferase fusion protein (Invivogen) diluted in blocking buffer, for 1 h at room temperature. After this step, the plates were washed 3 times with PBS. After the final wash, PBS was aspirated and 30 uL of QUANTI-Luc™ (Invivogen) was added per well. Plates were immediately read on a plate reader (Victor 3V plate reader, 0.1s) and luciferase activity measured.
# The raw PD-L1 intensity (the luciferase readout) corresponding to drug screen plates was normalized to blank plates containing only IFN-γ-treated wells, and the resulting ratio was used for the calculation of Z-scores.
# as §2
# [3] = test system: IFN-γ-induced PD-L1 expression in SK-MEL-28 cells; test: High-content primary screen for small molecules that reduce IFN-γ induced PD-L1 expression; type: cell-based, human; details: SK-MEL-28, IFN-γ 50 ng/ml, drugs at 40, 480 and 5000 nM, viability >75%
# Protocol: SK-MEL-28 cells (melanoma cell line; […] Cells were expanded in MEM (Corning) containing 10% FBS (Sigma) and 2 mM L-Glutamine. Frozen stocks of cells were prepared for direct use in the high-throughput screening (HTS) assay. Cells were harvested, pelleted and then resuspended in 95% FBS & 5% DMSO at a concentration 1×10^7 cells/ml. One ml aliquots were rate frozen to −80° C. at a rate of 1 degree per minute. These stocks were then transferred to vapor phase liquid nitrogen for long term storage. For screening, frozen cell vials were quickly thawed with continuous agitation in a at 37° C. water bath then re-suspended in the assay media at room temperature and centrifuged at 1,000 rpm for 5 minutes. The resulting pellet was re-suspended in appropriate volume and counted using an automated cell counter and diluted accordingly. Using a manually curated library of approximately 2500 individual drugs (2000 approved drugs, 500 unapproved drugs), drugs from the source plate were transferred to the destination plates (384-well assay plates—Corning #3712) using an ECHO 550 liquid handler (Labcyte). SK-MEL-28 cells (1750 cells per well in 30 μL of media), treated with IFN-g (50 ng/ml final) were added to these pre-formatted plates using a Multidrop™ Combi reagent dispenser (Thermofisher). […] Plates were centrifuged at 800 rpm for one minute before being incubated in a 5% CO2 humidified incubator at 37° C. After assessment for viability, plates were then prepared for immunostaining. Briefly, 16% paraformaldehyde (Electron Microscopy Sciences) was added to each well to a final concentration of 4%, for 10 minutes at room temperature. Following this time, the fix was aspirated and cells were washed 3 times with PBS. […] After this time, the blocking reagent was aspirated and immunostaining reagent added. […] Plates were sealed and kept at 4 C overnight. […] After this step, the plates were washed 3 times with PBS. After the final wash, PBS was aspirated and 30 uL of QUANTI-Luc™ (Invivogen) was added per well.
# [4] = test system: PD-L1 cell surface expression in AML cell lines (PL-21, TUR, MOLM-14, MV-4-11); test: Flow cytometry of IFN-γ-induced PD-L1 cell surface expression in AML cells; type: cell-based, human; details: 24 hours
# Protocol: FIG. 13A-D: MPC-0767 blocks IFN-γ-induced PD-L1 expression in AML cells. A) PL-21, B) TUR, C) MOLM-14, D) MV-4-11 cells treated with MPC-0767 (2 μM), IFN-γ (50 ng/ml) or IFN-γ+MPC-0767 for 24 h before cells were harvested for assessment of PD-L1 cell surface expression.
# To ascertain whether MPC-0767 can block IFN-γ-induced PD-L1 expression in AML cells, four AML cell lines harboring WT FLT3 (n=2) or FLT3-ITD (n=2) were treated with human IFN-γ (50 ng/ml) alone, MPC-0767 (2 μM) alone or the combination for 24 hours. Cells were harvested to determine PD-L1 cell surface expression by flow cytometry. Cells were also stained with a viability stain to gate on viable cells and exclude any dead cells. As shown in FIG. 13A-D, all cell lines induced PD-L1 cell surface expression in response to IFN-γ treatment (6-25 fold).
# [5] = test system: MV-4-11, MOLM-16, TUR, U937, KMS-28, OCI-LY-19 and Z138 cell lines; test: Synergy of MPC-0767 and venetoclax versus basal BCL-2 abundance; type: cell-based, human; details: 72 hours, CellTiter-Glo
# Protocol: FIG. 12: Cell lines representing acute myeloid leukemia, multiple myeloma, diffuse large B cell lymphoma and mantle cell lymphoma were assayed for basal abundance of BCL-2 (Y axis) and a high/low threshold is shown by dashed line. Cell line sensitivity to venetoclax after 72 hour treatment as assessed by CellTiter-Glo (X axis) is denoted by EC50 values shown in parentheses. Following drug combination treatment of MPC-0767 and venetoclax, determination of synergy is shown by bar graphs in black (synergy observed) or grey (no synergy observed).
# After 72 hour treatment with the indicated drug combinations, cell viability was assessed using CellTiter-Glo. […] The absolute EC75 for each single agent and drug combination was calculated using the R package DRC (Ritz et al., Dose-Response Analysis Using R. PLoS One. 2015. 10(12):e0146021; R Core Team, A language and environment for statistical computing. R Foundation for Statistical Computing, Vienna, Austria. 2017). […]
# To test whether BCL-2 abundance is predictive of the synergy between HSP90 inhibitors and venetoclax observed here, we analyzed BCL-2 abundance in cell lines representing acute myeloid leukemia (MV-4-11, MOLM-16, TUR and U937), multiple myeloma (KMS-28), diffuse large B cell lymphoma (OCI-LY-19) and mantle cell lymphoma (Z138) under basal conditions using flow cytometry. […]
Molecule,"viability at 48 h, 1 µM [1] [%]",concentration required to inhibit IFN-γ-induced PD-L1 expression compared with concentration required to affect cell proliferation [2],IFN-γ-induced PD-L1 signal [2],hit in the primary screen (reduction of IFN-γ-induced PD-L1 expression) [3],further results
CCc1cc(C(N)=O)ccc1-n1nc(C(C)C)c2c(-n3cnc(-c4cnn(C)c4)c3)ccnc21 [TAS-116],> 80,far lower,,,
CN(C)c1cc2c(cc1Sc1nc3c(N)nccc3n1CCNCC(C)(C)C)OCO2 [CUDC-305],> 80,far lower,,,
COc1cccc(-c2cc(F)ccc2[C@H]2Cc3nc(N)nc(C)c3C(=O)N2)n1 [HSP-990],,,blocked,identified as hits,
CC1(C)CC(=O)c2c(C(F)(F)F)nn(-c3ccc(C(N)=O)c(N[C@H]4CC[C@H](O)CC4)c3)c2C1 [PF0498473],,,blocked,identified as hits,
C=CCNC1=C2C[C@@H](C)C[C@H](OC)[C@H](O)[C@@H](C)/C=C(\C)[C@H](OC(N)=O)[C@@H](OC)/C=C\C=C(/C)C(=O)NC(=CC1=O)C2=O [tanespimycin],,,blocked,identified as hits,
COc1c(C)cnc(Cn2cnc3c(Cl)nc(N)nc32)c1C [CNF-2024],,,blocked,identified as hits,
CC(C)c1cc(-c2n[nH]c(=O)n2-c2ccc3c(ccn3C)c2)c(O)cc1O [STA-9090],> 80,far lower,,,
C[C@H](N)C(=O)O[C@@H](C)C(=O)N1CCC(CCn2c(Sc3cc4c(cc3Br)OCO4)nc3c(N)ncnc32)CC1 [MPC-0767],,,,,"basal PD-L1 cell surface expression ([4]; MPC-0767 2 μM alone, four AML cell lines): did not significantly reduce; reduction of IFN-γ-induced PD-L1 cell surface expression ([4]; MPC-0767 2 μM with IFN-γ 50 ng/ml, range over four AML cell lines): 43-83%; synergy with venetoclax ([5]; cell lines with high BCL-2 levels): observed in 4 out of 4 cell lines; synergy with venetoclax ([5]; three cell lines with low BCL-2 levels): no synergy was observed"
CC[C@@H](C)Nc1cc(C(=O)NC2CC3CCC(C2)N3c2ccc(C(=O)C3CC3)cn2)c(C)cc1C(N)=O (stereo partly drawn) [XL-888],> 80,far lower,,,
B1,,,,,"induction of PD-L1 cell surface expression ([4]; human IFN-γ 50 ng/ml alone, range over four AML cell lines): 6-25 fold"

# Source: US10799508B2, “Methods for treating cancer using HSP90 inhibitors” (AI Therapeutics, Inc., priority 2017, dated 2020)
